Source: publication PMC7600679, “Benzoxazole-Based Metal Complexes to Reverse Multidrug Resistance in Bacteria” (Antibiotics, 2020)
Converted amounts (≈) assume the structure as drawn. Like-named read-outs stand apart in the source and are kept apart here.

Assays:
[1] = system: Staphylococcus aureus ATCC 25923; test: Minimum inhibitory concentration (broth microdilution, CLSI); type: cell-based; settings: S. aureus ATCC 25923, 18 h, visual inspection
Procedure, shortened: (§1)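 MICs were determined by broth microdilution in MHB per CLSI guidelines. Wells were inoculated with a 10^−4 dilution of an overnight culture. Strains were methicillin-susceptible reference ATCC 25923 and the methicillin- and ofloxacin-resistant clinical isolate 272123.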

[2] = system: Enterobacter cloacae 31298; test: as above; type: cell-based; settings: E. cloacae 31298
Procedure, shortened: (§2)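 CLSI broth microdilution in MHB: serially diluted compounds received a 10^−4 dilution of overnight culture. E. cloacae 31298 is a clinical wound isolate that produces AHL. C. violaceum 026 is the QS sensor strain.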

[3] = system: Chromobacterium violaceum 026; test: as above; type: cell-based; settings: C. violaceum 026
Procedure, shortened: as §2

E. coli AG100 [4] = test: Resistance modulation (MIC reduction) assay with CIP and TET; type: cell-based, Escherichia coli; settings: compound at ¼ MIC, value is the MIC of ciprofloxacin
Protocol: (§3) The resistance modulation effects of compounds with ciprofloxacin (CIP) and tetracycline (TET) antibiotics were evaluated by the MIC reduction method on the Gram-negative E. coli AG100, AG100 A, and the Gram-positive S. aureus ATCC and MRSA strains.
(§4) The chemosensitizing activity of benzoxazole-type ligands and their metal complexes was determined based on the MIC values of the antibiotics in the presence of sub-inhibitory concentrations of the compounds (¼ MIC) in both Gram-negative and Gram-positive strains. The MICs were determined in strains by the two-fold broth microdilution method in 96-well plates, using serial dilutions of TET and CIP. The first four rows contained two-fold dilutions of antibiotics, and combinations of the TET and CIP and tested compounds were transferred into the last four rows. The 10^−4 dilution of an overnight bacterial culture in 50 μL of MHB was then measured to each well, except for the medium control wells. The plates were kept at 37 °C for 18 h. MIC values of antibiotics and their combination with tested compounds were detected by visual inspection.

S. aureus MRSA 272123 = test: as above; type: cell-based, Staphylococcus aureus; settings: for Reduction of the MIC value of CIP: compound at a quarter of the MIC; for CIP MIC in combination with compounds: compound at ¼ MIC, value is the MIC of ciprofloxacin
Protocol: as §3, §4

E. coli AG100 A [5] = test: Minimum inhibitory concentration (broth microdilution, CLSI); type: cell-based, Escherichia coli; settings: 18 h
Procedure, shortened: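 Strain: E. coli K-12 AG100 A, the AcrAB-TolC-deleted mutant of AG100. MICs determined per CLSI broth microdilution in MHB, with compounds serially diluted and a 10^−4 dilution of overnight culture added.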

E. coli AG100 [6] = test: Real-time ethidium bromide accumulation (efflux pump inhibition, AcrAB-TolC); type: cell-based, Escherichia coli; settings: compounds at ¼ MIC, EB 1 μg/mL, minute 30
S. aureus 272123 (MRSA) [7] = test: Minimum inhibitory concentration (broth microdilution, CLSI); type: cell-based, Staphylococcus aureus; settings: 18 h, visual inspection
Procedure, shortened: as §1

E. coli AG100 A [8] = test: Real-time ethidium bromide accumulation (efflux pump inhibition); type: cell-based, Escherichia coli; settings: compounds at ¼ MIC, EB 1 μg/mL, minute 30
E. coli AG100 [9] = test: Minimum inhibitory concentration (broth microdilution, CLSI); type: cell-based, Escherichia coli; settings: E. coli AG100, 18 h, visual inspection, read-out: MIC
S. aureus 272123 (MRSA) [10] = test: Real-time ethidium bromide accumulation (efflux pump inhibition); type: cell-based, Staphylococcus aureus; settings: compounds at ¼ MIC (3 at 12.5 µM), VER at 25 µM, EB 1 μg/mL, minute 30
S. aureus ATCC 25923 = test: as above; type: cell-based, Staphylococcus aureus; settings: compounds at ¼ MIC, EB 1 μg/mL, minute 30
[11] = E. coli AG100 A (AcrAB-TolC deleted), visual inspection

Structure (SMILES)	MIC [1]	MIC [2]	MIC [3]	CIP MIC in combination with compounds (E. coli AG100 [4])	Reduction of the MIC value of CIP (S. aureus MRSA 272123)	CIP MIC in combination with compounds (S. aureus MRSA 272123)	MIC (E. coli AG100 A [5]; [11])	Relative fluorescence index (RFI) (E. coli AG100 [6])	MIC (S. aureus 272123 (MRSA) [7])	Relative fluorescence index (RFI) (E. coli AG100 A [8])	MIC (E. coli AG100 [9])	Relative fluorescence index (RFI) (S. aureus 272123 (MRSA) [10])	Relative fluorescence index (RFI) (S. aureus ATCC 25923)	MIC ([1]; Staphylococcus aureus, ATCC25923)	MIC ([2]; Enterobacter cloacae)	MIC ([3]; Chromobacterium violaceum)	MIC (E. coli AG100 A [5]; Escherichia coli, AG100A)	MIC (S. aureus 272123 (MRSA) [7]; Staphylococcus aureus)	MIC (E. coli AG100 [9]; Escherichia coli)
[O-]C(=Cc1nc2ccccc2o1)C(F)(F)Cl.[O-]C(=Cc1nc2ccccc2o1)C(F)(F)Cl.[Zn+2] [Compound 5]	12.5 µM	>100 µM	>100 µM	0.016 µM	2 fold	6.25 µM	12.5 µM	0.37	3.125 µM	−0.19	50 µM	−0.13	0.03	–	–	–	–	–	–
O=C(Cc1nc2ccccc2o1)C(F)F [Compound 3]	–	–	–	0.016 µM	2 fold	6.25 µM	–	−0.07	50 µM (≈ 10.6 µg/mL)	−0.03	–	0.13	−0.01	100 µM (≈ 21.1 µg/mL)	> 100 µM	> 100 µM	25 µM (≈ 5.28 µg/mL)	50 µM (≈ 10.6 µg/mL)	50 µM (≈ 10.6 µg/mL)
[Fe+3].[O-]C(=Cc1nc2ccccc2o1)C(F)(F)F.[O-]C(=Cc1nc2ccccc2o1)C(F)(F)F.[O-]C(=Cc1nc2ccccc2o1)C(F)(F)F [Compound 12]	50 µM	>100 µM	>100 µM	0.016 µM	2 fold	6.25 µM	50 µM	0.04	25 µM	0.09	>100 µM	−0.02	−0.02	–	–	–	–	–	–
